Legend:
[1] = biological target: T1, phenylalanine hydroxylase (PAH) (Rattus norvegicus, UniProt P04176); assay: HPLC tyrosine fluorescence assay with purified recombinant PAH; format: biochemical
T1 construct: rat PAH maltose fusion protein, expressed in E. coli
T1 sequence (P04176 2-453): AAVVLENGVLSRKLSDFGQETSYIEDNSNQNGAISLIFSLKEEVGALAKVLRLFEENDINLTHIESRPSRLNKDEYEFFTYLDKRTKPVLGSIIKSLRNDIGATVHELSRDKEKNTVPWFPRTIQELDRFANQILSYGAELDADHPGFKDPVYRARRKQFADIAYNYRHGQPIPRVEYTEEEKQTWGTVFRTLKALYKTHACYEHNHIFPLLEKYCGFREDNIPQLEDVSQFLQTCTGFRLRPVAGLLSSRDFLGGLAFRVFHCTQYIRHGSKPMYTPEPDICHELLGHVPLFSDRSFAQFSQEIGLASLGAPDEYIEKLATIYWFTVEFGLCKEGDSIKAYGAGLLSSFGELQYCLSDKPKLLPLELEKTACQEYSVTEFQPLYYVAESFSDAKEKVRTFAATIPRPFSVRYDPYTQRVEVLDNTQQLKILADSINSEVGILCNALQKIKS

[2] = biological target: T2, Alkylglycerol monooxygenase (AGMO) (Rattus norvegicus, UniProt A0JPQ8); assay: HPLC fluorescence activity assay with 1-O-pyrenedecyl-sn-glycerol in rat liver microsomes, coupled to FALDH (FALDH not inhibited); format: biochemical
T2 construct: native enzyme in rat liver microsomes
T2 sequence (A0JPQ8 1-447): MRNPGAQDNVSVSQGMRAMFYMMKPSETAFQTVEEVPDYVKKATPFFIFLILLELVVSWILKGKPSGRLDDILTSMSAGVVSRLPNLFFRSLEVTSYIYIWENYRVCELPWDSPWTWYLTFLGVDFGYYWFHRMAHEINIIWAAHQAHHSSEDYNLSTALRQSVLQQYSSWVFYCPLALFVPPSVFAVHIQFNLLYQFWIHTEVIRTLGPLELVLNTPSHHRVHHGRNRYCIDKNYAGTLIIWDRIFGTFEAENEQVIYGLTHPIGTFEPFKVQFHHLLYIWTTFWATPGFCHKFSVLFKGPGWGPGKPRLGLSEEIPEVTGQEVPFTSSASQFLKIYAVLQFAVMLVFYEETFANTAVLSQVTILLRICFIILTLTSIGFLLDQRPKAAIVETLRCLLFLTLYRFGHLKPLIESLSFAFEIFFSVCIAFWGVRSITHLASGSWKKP

IC50 [1]: 360 to 430 µM | IC50 [2]: ~50 µM
Structure (SMILES): CC1Nc2nc(N(C)C)[nH]c(=O)c2NC1C (centres unmarked) [compound 6, 2-(dimethylamino)-6,7-dimethyl-5,6,7,8-tetrahydro-4(3H)-pteridinone]

From article PMC8147360, “AGMO Inhibitor Reduces 3T3-L1 Adipogenesis” (Cells, 2021)
